The source of these data is patent US20080280933A1, “BENZIMIDAZOLYL COMPOUNDS” (priority 2006, published 2008).

pEC50: −log10 of the molar value. A value given as a limit tells only on which side of the number the result lay.

The target in the first experiment is T1, mGluR2 receptor (metabotropic glutamate receptor 2) (Homo sapiens, UniProt Q14416).
T1 construct: expressed in transfected cells
T1 sequence (Q14416 19-872, species assumed): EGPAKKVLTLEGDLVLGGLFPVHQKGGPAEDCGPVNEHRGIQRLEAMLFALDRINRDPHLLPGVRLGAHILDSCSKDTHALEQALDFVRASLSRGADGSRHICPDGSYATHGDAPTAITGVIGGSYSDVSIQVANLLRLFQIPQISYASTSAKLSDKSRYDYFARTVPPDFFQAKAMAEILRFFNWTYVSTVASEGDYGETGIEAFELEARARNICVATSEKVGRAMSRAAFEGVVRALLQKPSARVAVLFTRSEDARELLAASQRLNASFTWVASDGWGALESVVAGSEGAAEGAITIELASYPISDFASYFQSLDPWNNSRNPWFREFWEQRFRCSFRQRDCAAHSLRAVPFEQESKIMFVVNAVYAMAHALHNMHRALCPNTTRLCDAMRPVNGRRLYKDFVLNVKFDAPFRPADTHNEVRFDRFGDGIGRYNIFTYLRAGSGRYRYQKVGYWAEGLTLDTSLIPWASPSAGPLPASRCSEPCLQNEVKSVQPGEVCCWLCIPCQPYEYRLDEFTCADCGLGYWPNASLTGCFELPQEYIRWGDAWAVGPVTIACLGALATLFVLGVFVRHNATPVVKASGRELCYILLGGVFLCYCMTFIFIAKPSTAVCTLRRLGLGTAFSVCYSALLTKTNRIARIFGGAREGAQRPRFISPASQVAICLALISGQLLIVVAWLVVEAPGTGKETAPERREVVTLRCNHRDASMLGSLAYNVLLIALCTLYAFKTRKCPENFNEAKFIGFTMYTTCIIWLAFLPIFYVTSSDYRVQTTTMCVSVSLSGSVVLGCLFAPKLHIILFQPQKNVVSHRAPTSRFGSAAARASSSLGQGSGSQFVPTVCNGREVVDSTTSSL
The experiment is described as follows: mGluR2 Potentiator Screen, FLIPR, EC10-EC20 glutamate challenge. Format: cell-based. The settings on record: mGluR2 potentiator screen, Table 7; read-out: EC50. As for the experimental part: Procedure for mGluR2 Potentiator Screen NLB Methods EC10-EC20 Challenge Cell Culture and Plating:
Cells used for this screen are HEK cells stably transfected with the mGluR2 receptor (metabotropic glutamate receptor 2) and the Gα15 G protein. Clones were identified by functional activity (FLIPR). Cells are grown in growth media containing: DMEM High Glucose with Glutamine and Na Pyruvate (GIBCO), 10% (v/v) Heat inactivate FBS (GIBCO) G418 500 ug/ml (from 50 mg/ml stock) (GIBCO) and Blasticidin 3 ug/ml (from 5 mg/ml stock made in H2O) (Invitrogen).
2 days before the assay cell are trypsinized with 0.25% trysin/EDTA (GIBCO), spun down at 1000 rpm for 5 minutes, resuspended in growth media and plated on polystyrene 384 well black wall/clear bottom poly-D-lysine coated plates at a density of approximately 18,000 cells/well in a volume of 50 μL per well. One day before the assay the growth media is removed from the plates by flicking and replaced with media containing DMEM High Glucose without Glutamine and Na Pyruvate (GIBCO) and 10% (v/v) dialyzed FBS (GIBCO). The reason for the removal of glutamine the day before the assay is to minimize the amount of glutamate that will be present during the assay, as endogenous glutarnate released from the cells can reduce the fluorescent response and interfere with the FLIPR screen.
FLIPR Methods and Data Analysis:
On the day of the assay, the FLIPR assay is performed using the following methods:
The pH is adjusted to 7.4 with 1M NaOH. Prepare a 2 mM (approx.) stock solution of Fluo-4.am (Molecular Probes) dye in DMSO −22 μl DMSO per 50 ug vial (440 μL per 1 mg vial). Make a 1 mM (approx.) flou-4, PA working solution per vial by adding 22 μl of 20% pluronic acid (PA) (Molecular Probes) in DMSO to each 50 ug vial (440 μL per 1 mg vial). Prepare a 250 mM Probenecid (Sigma) stock solution by dissolving 0.71 g into 5 ml 1N NaOH and 5 ml assay buffer (for each liter of assay wash buffer). Make 4 uM (approx.) dye incubation media by adding 2.50 ug vials per 11 ml DMEM high glucose without glutamine (220 ml per 1 mg vial). Add 110 μL probenecid stock per 11 ml (2.5 mM final [concentration]). To the dye media add 3 units/ml of glutamic-pyruvic transaminase (GPT, Sigma) and 3 mM Na Pyruvate. The assay has worked with dye concentrations from 2 uM to 8 uM dye as well. To the assay buffer from drug preparation, add 1.83 mls DMSO and 400 μL. 15.8% P104 (from New Leads biology) per liter for final concentrations of 0.18% DMSO and 0.006% P104. To the assay buffer for cell washing, add probenecid in the same manner and concentration that was used for the dye media.
Remove growth media from cell plates by flicking. Add 50 μl/well dye solution. Incubate 1 hour at 37° C. and 5% CO2. Remove dye solution and wash 3 times with assay buffer+probenecid (100 μl probenecid stock per 10 ml buffer), leaving 30 μL/well assay buffer. Wait at least 10-15 minutes. Compounds and agonist challenge additions are performed with the FLIPR. The in addition is for test compounds, which are added as 15 μL of 4× [concentration] of potentiator. The second 2nd addition is 15 μL of 4× [concentration] of agonist or challenge. This achieves 1× concentration of all compounds only after 2nd addition. The 1st and 2nd additions are performed separately using the FLIPR, which give 2 different data files. Compounds are pretreated at least 30 minutes before agonist addition.
Results are analyzed by dividing the peak fluorescent value of the FLIPR response by the […] to achieve a ratio response. The ratios are then analyzed by curve fitting programs. Since potent compounds can give an inverted U dose response curve (due to effects on endogenous glutamate by the potentiators) points are deleted at concentrations higher than the concentration that gives the maximum effect. Maximum values for dose response curves (forced fitting) are derived from standards on the plate.
Compound Preparation and Glutamate Challenge: […]
As usually defined, the pEC50 is the EC50 on a negative log10 scale, so that one unit is a factor of ten. As for `CC1CC1COc1ccc(Cl)cc1C1CCN(Cc2nc3ccccc3n2CCF)CC1` (stereo not drawn) [compound 200], the pEC50 is 5.81.
On the same count and under the same terms, in the case of `Cn1c(CN2CCC(c3ccc(F)cc3)C2)nc2ccccc21` (stereo not drawn) [compound 155] it was 5.78.
Still for that read-out and setting: with `Cn1c(CN2CCC(c3ccccc3Cl)CC2)nc2ccccc21` [compound 161] the figure was 6.84.
For `Cn1c(CN2CCC(c3ccccc3Cl)C2)nc2ccccc21` (stereo not drawn) [compound 152], the pEC50 is 6.43.
Take `Cn1c(CN2CCC(c3cc(Cl)ccc3F)CC2)nc2ccccc21` [compound 172]: the pEC50 was 8.08.
On the same count and under the same terms, with `FCn1c(CN2CCC(c3cc(Cl)ccc3OCC3CCC3)CC2)nc2ccccc21` [compound 193] the figure was 5.63; with `COc1cccc2c1CC[C@H]1CN(Cc3nc4ccccc4n3C)CC[C@H]21` [compound 171], 5.12.

Still in this experiment, the particulars now being: read-out: EC50.
Take `C[C@@H]1CN(Cc2nc3ccccc3n2C)CC[C@@H]1c1ccc(F)c(F)c1` (racemic) [Entry 462, 2-{[Cis-4-(3,4-Difluoro-phenyl)-3-methyl-piperidin-1-yl]methyl}-1-methyl-1H-benzoimidazole]: the pEC50 was 6.62.
The same measure, in the same setting: in the case of `Cc1cccc2nc(CN3CCC(c4ccccc4F)CC3)n(C)c12` [compound 301] it was 7.37; in that of `Cn1c(CN2CCC(O)(c3ccc(Cl)cc3)CC2)nc2ccccc21` [compound 76], less than 5.24.
Same read-out and setting: with `Cc1ccc2c(c1)C1(CCN(Cc3nc4ccccc4n3C)CC1)CN2C(=O)c1snnc1C` [compound 21] the figure was 5.94; with `Cn1c(CN2CC[C@@H](c3ccc(F)cc3)[C@H](COc3ccc4c(c3)OCO4)C2)nc2ccccc21` [compound 410], 5.28.
On to `COc1ccccc1[C@]1(C)CCN(Cc2nc3ccccc3n2C2CC2)C[C@@H]1C` [compound 322], for which the pEC50 is 5.00.
On the same count and under the same terms, in the case of `COc1ccccc1C1CCN(Cc2nc3ccccc3n2CF)CC1C` (stereo not drawn) [compound 294] it was 6.13; in that of “(2-((4-(2-Fluorophenyl)piperidin-1-yl)methyl)-1-methyl-1H-benzo[d]imidazol-5-yl)methanol [Entry 297]”, 6.04; in that of `CC(C)CN1CC2(CCN(Cc3nc4ccccc4n3C)CC2)c2ccccc21` [compound 106], 5.59.
For `Cc1cc(C)c2c(c1)C1(CCN(Cc3nc4ccccc4n3C)CC1)CN2` [compound 147], the pEC50 is 5.24.
With `CC(O)c1ccccc1C1CCN(Cc2nc3ccccc3n2C)CC1` (stereo not drawn) [compound 313], the pEC50 is 6.44.
On the same count and under the same terms, in the case of `Cn1c(CN2CCC(c3cccc(C(C)(C)C)c3)CC2)nc2ccccc21` [compound 419] it was 6.83; in that of `COc1cccc(C2CCN(Cc3nc4cc(Cl)ccc4n3C)CC2)c1` [compound 385], 5.56; in that of `Cn1c(CN2CCC(c3ccccc3F)CC2)nc2cc(-c3ccccc3)ccc21` [compound 280], 6.75.
On the same count and under the same terms, in the case of `Cn1c(CN2CCC(c3ccc(F)cc3)CC2)nc2cc(F)c(F)cc21` [compound 368] it was 6.32; in that of `Cn1c(CN2CCC(c3ccccc3F)CC2)nc2cc(F)ccc21` [compound 351], 7.06.
Same read-out and setting: in the case of `Cn1c(CN2CCC(c3ccccc3F)CC2)nc2cccc(-c3ccccc3)c21` [compound 308] it was 6.82; in that of `Cn1c(CN2CCC(c3ccccc3F)CC2)nc2cc(F)c(F)cc21` [compound 259], 6.33.
Consider `FCCn1c(CN2CCC(c3ccc(F)cc3)CC2)nc2ccccc21` [compound 370], for which the pEC50 is 6.24.
`COc1ccc(C(F)(F)F)cc1C1CCN(Cc2nc3ccccc3n2CCF)CC1` [compound 319]: the pEC50 was 5.78.
Still for that read-out and setting: with `Cn1c(CN2CCC(c3ccccc3OC3CCOCC3)CC2)nc2ccccc21` [compound 99] the figure was 5.67; with `Cn1c(CN2CCC(c3cc(Cl)ccc3F)CC2)nc2cc(F)ccc21` [compound 372], 6.51; with `CC(C)Oc1ccc(C2CCN(Cc3nc4ccccc4n3C)CC2)cc1` [compound 412], 6.98.
Regarding `Cn1c(CN2CCC(c3ccc(F)cc3F)CC2)nc2cccc(F)c21` [compound 424], the pEC50 is 7.32.
As for `Cn1c(CN2CCC(c3cc(C(F)(F)F)ccc3F)CC2)nc2cc(F)c(F)cc21` [compound 328], the pEC50 is 6.33.
Same read-out and setting: with `COc1ccccc1C1CCN(Cc2nc3cc(C(=O)O)ccc3n2C)CC1` [Entry 288, 2-[4-(2-Methoxy-phenyl)-piperidin-1-ylmethyl]-1-methyl-1H-benzoimidazole-5-carboxylic acid] the figure was 5.77.
The same measure, in the same setting: in the case of `COc1ccc(C(F)(F)F)cc1C1CCN(Cc2nc3ccccc3n2C2CC2)CC1` [compound 318] it was 5.33; in that of `CCN1CC2(CCN(Cc3nc4ccccc4n3C)CC2)c2cc(C)ccc21` [compound 118], 5.47.
On the same count and under the same terms, in the case of `Cn1c(CN2CCC3(CC2)CN(C(=O)c2ccc4nccnc4c2)c2ccccc23)nc2ccccc21` [compound 48] it was less than 5.18; in that of `Fc1ccccc1C1CCN(Cc2nc3ccccc3n2C2CC2)CC1` [compound 251], 5.87.
Consider `CCCN1CC2(CCN(Cc3nc4ccccc4n3C)CC2)c2cc(F)ccc21` [compound 137], for which the pEC50 is less than 5.10.
Still for that read-out and setting: with `Cn1c(CN2CCC(c3ccc(F)cc3F)CC2)nc2cc(F)ccc21` [compound 423] the figure was 7.45.
Still for that read-out and setting: with `Fc1ccc(C2CCN(Cc3nc4ccccc4n3C3CC3)CC2)cc1` [compound 369] the figure was 5.75; with `Cn1c(CN2CCC(c3ccc(OC(F)(F)F)cc3)CC2)nc2ccccc21` [compound 340], 6.70; with `Cc1ccc2c(c1)C1(CCN(Cc3nc4ccccc4n3C)CC1)CN2C(=O)c1cccnc1` [compound 35], 5.44.
`Cn1c(CN2CCC(c3cc(F)cc(F)c3)CC2)nc2ccccc21` [compound 414]: the pEC50 is 6.90.
Regarding `Cn1c(CN2CCC(c3cccc(F)c3)CC2)nc2ccccc21` [compound 430], the pEC50 was 5.48.
On the same count and under the same terms, in the case of `CC(C)Oc1ccccc1C1CCN(Cc2nc3cc(Cl)ccc3n2C)CC1` [compound 379] it was 5.80.
As to `Cn1c(CN2CCC(c3ccc(Cl)c(F)c3)CC2)nc2cc(F)ccc21` [compound 454], the pEC50 is 7.05.
Same read-out and setting: with `Cn1c(CN2CCC3(CC2)CN(C(=O)C2CC2)c2ccccc23)nc2ccccc21` [compound 61] the figure was 5.40; with “2-{[Cis-4-(3,4-Difluoro-phenyl)-3-methyl-piperidin-1-yl]methyl}-1-methyl-1H-benzoimidazole [Entry 462]”, 5.74.
Same read-out and setting: with `CC1CN(CCOc2ccccc2C2CCN(Cc3nc4ccccc4n3C)CC2)CC(C)O1` (stereo not drawn) [compound 85] the figure was 5.86.
Same read-out and setting: with `CCC(C)CN1CC2(CCN(Cc3nc4ccccc4n3C)CC2)c2cc(C)ccc21` (stereo not drawn) [compound 141] the figure was 5.25; with `Cn1c(CN2CC[C@@H]3c4c(Br)ccc(Cl)c4CC[C@H]3C2)nc2ccccc21` [compound 299], 5.21; with `Cn1c(CN2CCC(c3cc(C(F)(F)F)cc(C(F)(F)F)c3)CC2)nc2ccccc21` [compound 348], 6.70.
Regarding `COc1ccc(C2CCN(Cc3nc4ccccc4n3C)CC2)cc1` [compound 421], the pEC50 is 6.67.
Still for that read-out and setting: with `CC(C)Oc1ccccc1C1CCN(Cc2nc3cc(C#N)ccc3n2C)CC1` [compound 402] the figure was 6.28.
